This note sets out measurements from patent US12378224B2 (Dong-A Socio Holdings Co., Ltd., priority 2016, dated 2025).

This assay has as its target human MER (528-end) (Homo sapiens (Human), UniProt Q12866). The assay is described as follows: HTRF Kinase Activity Biochemical Assay (KinEASE-TK). Conditions: 10 uM ATP. The method in brief:
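Activity read-out is the HTRF ratio (665 nm over 620 nm emission, ×10,000; excitation 340 nm) after 1 h detection with 0.375 nM Eu3+-cryptate anti-TK antibody plus 0.062 uM SA-XL665. Preceding kinase step: human MER (528-end), biotinylated TK substrate, 1 h, room temperature.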
(Time-resolved FRET reads energy transfer from a long-lived donor to a nearby acceptor.)

Molecules are shown by their SMILES.

Sequence of human MER (528-end) (Q12866 528-999 limits assumed): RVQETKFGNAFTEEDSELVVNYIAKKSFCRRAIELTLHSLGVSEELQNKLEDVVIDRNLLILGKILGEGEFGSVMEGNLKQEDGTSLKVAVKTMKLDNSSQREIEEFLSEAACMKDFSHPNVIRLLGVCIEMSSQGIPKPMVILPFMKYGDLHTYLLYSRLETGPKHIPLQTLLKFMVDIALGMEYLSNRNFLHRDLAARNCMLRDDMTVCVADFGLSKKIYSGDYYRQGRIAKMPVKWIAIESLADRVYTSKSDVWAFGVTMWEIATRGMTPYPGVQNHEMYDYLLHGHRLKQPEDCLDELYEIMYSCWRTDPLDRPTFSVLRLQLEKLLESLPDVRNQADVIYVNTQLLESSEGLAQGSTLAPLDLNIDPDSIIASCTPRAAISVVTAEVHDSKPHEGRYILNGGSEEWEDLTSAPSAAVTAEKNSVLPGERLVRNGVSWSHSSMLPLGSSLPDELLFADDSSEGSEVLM

The term IC50 denotes the midpoint of a concentration-inhibition curve. A higher IC50 goes with weaker potency in that assay. As for `CN1CCN(CCn2cc(-c3cccc(OC(=O)N4CC[C@@H](NC(=O)c5cc(-c6cnn(C)c6)cnc5N)C4)c3)cn2)CC1` [Example 288, 3-(1-(2-(4-methylpiperazin-1-yl)ethyl)-1H-pyrazol-4-yl)phenyl (R)-3-(2-amino-5-(1-methyl-1H-pyrazol-4-yl)nicotinamido)pyrrolidine-1-carboxylate], the IC50 is over 1000 nM. With `Cn1cc(-c2cnc(N)c(C(=O)N[C@@H]3CCN(C(=O)Oc4cccc(-c5cncc6ccccc56)c4)C3)c2)cn1` [Example 289, 3-(isoquinolin-4-yl)phenyl (R)-3-(2-amino-5-(1-methyl-1H-pyrazol-4-yl)nicotinamido)pyrrolidine-1-carboxylate] the figure was 10 to 100 nM. The compound `CN1CCN(c2cc(-c3cccc(OC(=O)N4CC[C@@H](NC(=O)c5cc(-c6cnn(C)c6)cnc5N)C4)c3)ccn2)CC1` [Example 290, 3-(2-(4-methylpiperazin-1-yl)pyridin-4-yl)phenyl (R)-3-(2-amino-5-(1-methyl-1H-pyrazol-4-yl)nicotinamido)pyrrolidine-1-carboxylate] showed a 50% inhibitory concentration (IC50) of over 1000 nM. Regarding `CN1CCN(Cc2ccc(-c3ccc4cc(OC(=O)N5CC[C@@H](NC(=O)c6cc(-c7cnn(C)c7)cnc6N)C5)ccc4c3)cc2)CC1` [Example 293, 6-(4-((4-methylpiperazin-1-yl)methyl)phenyl)naphthalen-2-yl (R)-3-(2-amino-5-(1-methyl-1H-pyrazol-4-yl)nicotinamido)pyrrolidine-1-carboxylate], the IC50 lay in the range of 100 to 1000 nM. With `Cn1cc(-c2cnc(N)c(C(=O)N[C@@H]3CCN(C(=O)Oc4ccc5ccc(OCC6CCNCC6)cc5c4)C3)c2)cn1` [Example 298] the figure was 100 to 1000 nM; with `Cn1cc(-c2cnc(N)c(C(=O)N[C@@H]3CCN(C(=O)Oc4ccc5ccc(OCCO)cc5c4)C3)c2)cn1` [Example 299, 7-(2-hydroxyethoxy)naphthalen-2-yl (R)-3-(2-amino-5-(1-methyl-1H-pyrazol-4-yl)nicotinamido)pyrrolidine-1-carboxylate], 100 to 1000 nM.

Compound `Cn1cc(-c2cnc(N)c(C(=O)N[C@@H]3CCN(C(=O)Oc4cccc(-c5ccc(CNC6CNC6)cc5)c4)C3)c2)cn1` [Example 306, 4′-((azetidin-3-ylamino)methyl)-[1,1′-biphenyl]-3-yl (R)-3-(2-amino-5-(1-methyl-1H-pyrazol-4-yl)nicotinamido)pyrrolidine-1-carboxylate] gave a concentration for half-maximal inhibition (IC50) of 100 to 1000 nM. To `Cn1cc(-c2cnc(N)c(C(=O)N[C@@H]3CCN(C(=O)Oc4cccc(-c5ccc(CNCCN)cc5)c4)C3)c2)cn1` [Example 307, 4′-(((2-aminoethyl)amino)methyl)-[1,1′-biphenyl]-3-yl (R)-3-(2-amino-5-(1-methyl-1H-pyrazol-4-yl)nicotinamido)pyrrolidine-1-carboxylate] belongs 100 to 1000 nM. `CN(C)CCNCc1ccc(-c2cccc(OC(=O)N3CC[C@@H](NC(=O)c4cc(-c5cnn(C)c5)cnc4N)C3)c2)cc1` [Example 308, 4′-(((2-(dimethylamino)ethyl)amino)methyl)-[1,1′-biphenyl]-3-yl (R)-3-(2-amino-5-(1-methyl-1H-pyrazol-4-yl)nicotinamido)pyrrolidine-1-carboxylate] showed a half-inhibitory concentration (IC50) of 100 to 1000 nM.

As for `CN1CC[C@@H](NCc2ccc(-c3cccc(OC(=O)N4CC[C@@H](NC(=O)c5cc(-c6cnn(C)c6)cnc5N)C4)c3)cc2)C1` [Example 310, 4′-((((R)-1-methylpyrrolidin-3-yl)amino)methyl)-[1,1′-biphenyl]-3-yl (R)-3-(2-amino-5-(1-methyl-1H-pyrazol-4-yl)nicotinamido)pyrrolidine-1-carboxylate], the half-maximal inhibitory concentration (IC50) lay within 100 to 1000 nM.

Take `CN(C)C1CCN(Cc2ccc(-c3cccc(OC(=O)N4CC[C@@H](NC(=O)c5cc(-c6cnn(C)c6)cnc5N)C4)c3)cc2)C1` (stereo partly drawn) [Example 311, 4′-((3-(dimethylamino)pyrrolidin-1-yl)methyl)-[1,1′-biphenyl]-3-yl (3R)-3-(2-amino-5-(1-methyl-1H-pyrazol-4-yl)nicotinamido)pyrrolidine-1-carboxylate]: the IC50 lay in the range of 100 to 1000 nM. `Cn1cc(-c2cnc(N)c(C(=O)N[C@@H]3CCN(C(=O)Oc4cccc(-c5ccc(CNC[C@@H]6CCCN6)cc5)c4)C3)c2)cn1` [Example 312, 4′-(((((S)-pyrrolidin-2-yl)methyl)amino)methyl)-[1,1′-biphenyl]-3-yl (R)-3-(2-amino-5-(1-methyl-1H-pyrazol-4-yl)nicotinamido)pyrrolidine-1-carboxylate] gave a concentration for half-maximal inhibition (IC50) of 100 to 1000 nM. To `Cn1cc(-c2cnc(N)c(C(=O)N[C@@H]3CCN(C(=O)Oc4cccc(-c5ccc(CN[C@@H]6CCNC6)cc5)c4)C3)c2)cn1` [Example 313, 4′-((((R)-pyrrolidin-3-yl)amino)methyl)-[1,1′-biphenyl]-3-yl (R)-3-(2-amino-5-(1-methyl-1H-pyrazol-4-yl)nicotinamido)pyrrolidine-1-carboxylate] belongs 100 to 1000 nM; to `CCN1CCC[C@@H]1CNCc1ccc(-c2cccc(OC(=O)N3CC[C@@H](NC(=O)c4cc(-c5cnn(C)c5)cnc4N)C3)c2)cc1` [Example 314, 4′-(((((R)-1-ethylpyrrolidin-2-yl)methyl)amino)methyl)-[1,1′-biphenyl]-3-yl (R)-3-(2-amino-5-(1-methyl-1H-pyrazol-4-yl)nicotinamido)pyrrolidine-1-carboxylate], 100 to 1000 nM; to `Cn1cc(-c2cnc(N)c(C(=O)N[C@@H]3CCN(C(=O)Oc4cccc(-c5ccc(CN[C@H]6CCCNC6)cc5)c4)C3)c2)cn1` [Example 315, 4′-((((S)-piperidin-3-yl)amino)methyl)-[1,1′-biphenyl]-3-yl (R)-3-(2-amino-5-(1-methyl-1H-pyrazol-4-yl)nicotinamido)pyrrolidine-1-carboxylate], 100 to 1000 nM. To `Cn1cc(-c2cnc(N)c(C(=O)N[C@@H]3CCN(C(=O)Oc4cccc(-c5ccc(CN6CCC[C@@H](N)C6)cc5)c4)C3)c2)cn1` [Example 316, 4′-(((R)-3-aminopiperidin-1-yl)methyl)-[1,1′-biphenyl]-3-yl (R)-3-(2-amino-5-(1-methyl-1H-pyrazol-4-yl)nicotinamido)pyrrolidine-1-carboxylate] belongs 100 to 1000 nM; to `CN1CCC(NCc2ccc(-c3cccc(OC(=O)N4CC[C@@H](NC(=O)c5cc(-c6cnn(C)c6)cnc5N)C4)c3)cc2)CC1` [Example 318, 4′-(((1-methylpiperidin-4-yl)amino)methyl)-[1,1′-biphenyl]-3-yl (R)-3-(2-amino-5-(1-methyl-1H-pyrazol-4-yl)nicotinamido)pyrrolidine-1-carboxylate], 100 to 1000 nM; to `Cn1cc(-c2cnc(N)c(C(=O)N[C@@H]3CCN(C(=O)Oc4cccc(-c5ccc(CN6CCCC(O)C6)cc5)c4)C3)c2)cn1` (stereo partly drawn) [Example 319, 4′-((3-hydroxypiperidin-1-yl)methyl)[1,1′-biphenyl]-3-yl (3R)-3-(2-amino-5-(1-methyl-1H-pyrazol-4-yl)nicotinamido)pyrrolidine-1-carboxylate], 100 to 1000 nM. To `Cn1cc(-c2cnc(N)c(C(=O)N[C@@H]3CCN(C(=O)Oc4cccc(-c5ccc(CN6CCCC(CO)C6)cc5)c4)C3)c2)cn1` (stereo partly drawn) [Example 320, 4′-((3-(hydroxymethyl)piperidin-1-yl)methyl)-[1,1′-biphenyl]-3-yl (3R)-3-(2-amino-5-(1-methyl-1H-pyrazol-4-yl)nicotinamido)pyrrolidine-1-carboxylate] belongs 100 to 1000 nM. As for `Cn1cc(-c2cnc(N)c(C(=O)N[C@@H]3CCN(C(=O)Oc4cccc(-c5ccc(CN6CCC(CO)CC6)cc5)c4)C3)c2)cn1` [Example 321, 4′-((4-(hydroxymethyl)piperidin-1-yl)methyl)-[1,1′-biphenyl]-3-yl (R)-3-(2-amino-5-(1-methyl-1H-pyrazol-4-yl)nicotinamido)pyrrolidine-1-carboxylate], the half-maximal inhibitory concentration (IC50) was 100 to 1000 nM. Regarding `CN1CC[C@@H]2CN(Cc3ccc(-c4cccc(OC(=O)N5CC[C@@H](NC(=O)c6cc(-c7cnn(C)c7)cnc6N)C5)c4)cc3)C[C@@H]21` [Example 322, 4′-(((3aR,6aR)-1-methylhexahydropyrrolo[3,4-b]pyrrol-5(1H)-yl)methyl)-[1,1′-biphenyl]-3-yl (R)-3-(2-amino-5-(1-methyl-1H-pyrazol-4-yl)nicotinamido)pyrrolidine-1-carboxylate], the IC50 was 100 to 1000 nM. With `Cn1cc(-c2cnc(N)c(C(=O)N[C@@H]3CCN(C(=O)Oc4cccc(-c5ccc(CN6CCCNCC6)cc5)c4)C3)c2)cn1` [Example 323, 4′-((1,4-diazepan-1-yl)methyl)-[1,1′-biphenyl]-3-yl (R)-3-(2-amino-5-(1-methyl-1H-pyrazol-4-yl)nicotinamido)pyrrolidine-1-carboxylate] the figure was 100 to 1000 nM; with `Cn1cc(-c2cnc(N)c(C(=O)N[C@@H]3CCN(C(=O)Oc4cccc(-c5ccc(CN6CCC[C@@H]6CO)cc5)c4)C3)c2)cn1` [Example 324, 4′-(((R)-2-(hydroxymethyl)pyrrolidin-1-yl)methyl)-[1,1′-biphenyl]-3-yl (R)-3-(2-amino-5-(1-methyl-1H-pyrazol-4-yl)nicotinamido)pyrrolidine-1-carboxylate], 100 to 1000 nM. Turning to `Cn1cc(-c2cnc(N)c(C(=O)N[C@@H]3CCN(C(=O)Oc4cccc(-c5ccc(CN6CCC[C@H]6C(N)=O)cc5)c4)C3)c2)cn1` [Example 325, 4′-(((S)-2-carbamoylpyrrolidin-1-yl)methyl)-[1,1′-biphenyl]-3-yl (R)-3-(2-amino-5-(1-methyl-1H-pyrazol-4-yl)nicotinamido)pyrrolidine-1-carboxylate], the IC50 is over 1000 nM. Compound `C[C@H](CO)NCc1ccc(-c2cccc(OC(=O)N3CC[C@@H](NC(=O)c4cc(-c5cnn(C)c5)cnc4N)C3)c2)cc1` [Example 327, 4′-((((R)-1-hydroxypropan-2-yl)amino)methyl)-[1,1′-biphenyl]-3-yl (R)-3-(2-amino-5-(1-methyl-1H-pyrazol-4-yl)nicotinamido)pyrrolidine-1-carboxylate] showed a concentration for half-maximal inhibition (IC50) of 100 to 1000 nM.
